Patent publication EP1013768A1, “Mutant epoxide hydrolases” (priority 1998, dated 2000)

How the values were obtained:
Format in all cases: biochemical
[1] = test system: epoxide hydrolase from Agrobacterium radiobacter AD1, wild type, SEQ ID No. 1; assay: Stereoselective hydrolysis (kinetic resolution) of styrene oxides, comparative experiment with wild type enzyme; settings: substrate 5 mM, Tris buffer 50 mM pH9, 30°C, 10% DMSO for meta- and para-chlorostyrene oxide, chiral GLC
Description: (§1) A screw-cap bottle containing 30 ml Tris buffer^1 (50 mM pH9) was incubated in a shaking waterbath at 30°C. Styrene oxides (SO) as indicated in table 3 were added to a final concentration of 5 mM. The reaction was started by the addition of the a purified enzyme solution of the Tyr215Phe mutant of the epoxide hydrolase from Agrobacterium radiobacter AD1. The kinetic resolution was monitored by periodically taking 1 ml samples (with a 1 ml syringe) from the closed screw-cap bottle. The samples were extracted with diethylether containing 20 mM mesitylene as an internal standard. Prior to analysis by chiral GLC the water was removed from the sample by passing it through a short column containing MgSO4. The enantiomeric excess (%ee) and the yield of the epoxides was determined with a Hewlett-Packard 5890 gas chromatograph equipped with a FID-detector, using a Chiraldex G-TA capillary column, of 50 m lenght and 0.25 mm inside diameter. The data from the chiral GLC are as follows: • styrene oxide, tr(S)=12.4 min and tr(R)=14.8 min at 110°C; • meta-chlorostyrene oxide, tr(S)=20.2 min and tr(R)= 31.1 min at 120°C; • para-chlorostyrene oxide, tr(S)=40.7 min and tr(R)= 43.0 min at 100°C. ^1 In case of meta-chlorostyrene oxide and para-chlorostyrene oxide the buffer also contained 10% DMSO
Example III was repeated using the corresponding wild type epoxide hydrolase for Agrobacterium radiobacter AD1.

[2] = test system: epoxide hydrolase from Agrobacterium radiobacter AD1, Tyr215Phe mutant; assay: Stereoselective hydrolysis (kinetic resolution) of styrene oxides with Tyr215Phe mutant; settings: substrate 5 mM, Tris buffer 50 mM pH9, 30°C, 10% DMSO for meta- and para-chlorostyrene oxide, chiral GLC
Description: Site directed mutagenesis was done as described by Kunkel (Proc. Natl. Acad. Sci. U.S.A., 82, 488-492 (1985)) with uracil-containing single stranded plasmid pEH20 as template (Rink et al.). Tyr^215 was mutated to Phe with the primer 5'-[…]-3' (mutated codon underlined). In order to confirm the mutation, the whole gene was sequenced as described in Rink et al.
as §1

[3] = test system: epoxide hydrolase from Agrobacterium radiobacter AD1, Tyr152Phe mutant; assay: Stereoselective hydrolysis (kinetic resolution) of racemic styrene oxide with Tyr152Phe mutant; settings: as Example III (5 mM, Tris buffer 50 mM pH9, 30°C)

Row | SMILES | E-value [1] | E-value [2] | E-value [3]
1 | O=[N+]([O-])c1ccc(C2CO2)cc1 (racemic) [P-NO2-SO] | 100 | > 200 | –
2 | Clc1cccc(C2CO2)c1 (stereo not drawn) [M-Cl-SO, meta-chlorostyrene oxide] | 6.5 | 13 | –
3 | Clc1ccc(C2CO2)cc1 (stereo not drawn) [P-Cl-SO, para-chlorostyrene oxide] | 32 | 130 | –
4 | c1ccc(C2CO2)cc1 (racemic) [SO, styrene oxide] | 16 | 30 | ≥ 40
